Results as given in PubChem BioAssay (NCI).
“And” between values parts separate entries of the source, which are not always exact repeats. Equal entries are not always repeated.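 All cell lines were grown in 96-well plates and treated with compound for 48 hours. The concentration for 50% growth inhibition is given as GI50. TGI marks complete inhibition of growth.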 *1 amine or outer side, *2 acyl side, *3 side chain or, on linkers, in order; H or OH if unused. Where a SMILES comes first, the peptide text is derived from it. Bridges are numbered along the chain shown (N, C = ends). Roman numbers before positions name the chains, in order. [ ]: non-standard residue; d: D form. Actinocin(9to1) = Cc1c2oc3c(C)ccc(C(=O)[*:1])c3nc-2c(C(=O)[*:2])c(N)c1=O; NMeF = CN[CH](Cc1ccccc1)C(=O)O; Sar = CNCC(=O)O

Experiments:
Test in all cases: DTP human tumour cell line panel, 48 h
[1] = test system: 786-0 renal
[2] = test system: IGROV1 ovarian
[3] = test system: MCF7 breast
[4] = test system: HCC-2998 colon
[5] = test system: UACC-257 melanoma
[6] = test system: NCI/ADR-RES ovarian
[7] = test system: OVCAR-8 ovarian
[8] = test system: MDA-MB-231 breast
[9] = test system: SNB-19 CNS
[10] = test system: CCRF-CEM leukemia

COc1cc(NC(=O)C2=C(N3CCOCC3)/C(=C/c3ccc(Cl)cc3)CC2)cc(OC)c1OC
GI50 [1]: 10.4 µM
TGI [1]: 33.1 µM
GI50 [2]: 21.3 µM
TGI [2]: > 100 µM
GI50 [3]: > 100 µM
TGI [3]: > 100 µM
GI50 [4]: 38.9 µM
TGI [4]: > 100 µM
GI50 [5]: > 100 µM
TGI [5]: > 100 µM
GI50 [6]: 42.5 µM
TGI [6]: > 100 µM
GI50 [7]: 19.5 µM
TGI [7]: > 100 µM
GI50 [8]: 26.5 µM
TGI [8]: > 100 µM
GI50 [9]: 28.8 µM
TGI [9]: 95.1 µM

O=S1Nc2c(Cl)cc(Cl)c(Cl)c2S1 (centres undefined)
TGI [1]: > 100 µM
TGI [2]: > 100 µM
TGI [10]: > 100 µM
TGI [4]: > 100 µM
TGI [5]: > 100 µM
TGI [7]: > 100 µM
TGI [9]: > 100 µM

Cc1coc2c1C(OC(=O)C(C)C)C1(C)C(C)CCC(O)C1C2=O (centres undefined)
TGI [1]: > 100 µM
TGI [2]: > 100 µM
TGI [3]: > 100 µM
TGI [10]: > 100 µM
TGI [4]: > 100 µM
TGI [5]: > 100 µM
TGI [6]: > 100 µM
TGI [7]: > 100 µM
TGI [8]: > 100 µM

Cc1c(Cl)cccc1NC(=O)c1sc2nc3c(cc2c1N)CCCCC3
GI50 [1]: 0.207 µM
TGI [1]: 14 µM
GI50 [2]: 0.376 µM
TGI [2]: > 50 µM
GI50 [3]: 0.105 µM
TGI [3]: > 50 µM
GI50 [10]: 0.257 µM
TGI [10]: > 50 µM
GI50 [4]: 1.76 µM
TGI [4]: > 50 µM
GI50 [7]: 0.825 µM
TGI [7]: > 50 µM
GI50 [8]: 0.827 µM
TGI [8]: > 50 µM
GI50 [9]: 0.298 µM
TGI [9]: > 50 µM

O=C1OCC2=C1C(c1ccccc1)c1cc3c(cc1N2CCO)OCCO3 (centres undefined)
GI50 [1]: 0.288 µM
TGI [1]: > 50 µM
GI50 [2]: 0.161 µM
TGI [2]: 1.41 µM
GI50 [3]: 0.175 µM
TGI [3]: 48.6 µM
GI50 [10]: 0.276 µM
TGI [10]: > 50 µM
GI50 [4]: 0.182 µM
TGI [4]: 0.722 µM
GI50 [6]: 0.377 µM
TGI [6]: 1.93 µM
GI50 [7]: 0.651 µM
TGI [7]: > 50 µM
GI50 [8]: 1.14 µM
TGI [8]: 11.5 µM
GI50 [9]: 0.921 µM
TGI [9]: > 16.8 µM

Cn1cccc1/C=C/c1cc(Br)c(/C=C/c2cccn2C)cc1Br
TGI [1]: 20.2 µM
TGI [2]: 53.2 µM
TGI [10]: 62.2 µM
TGI [4]: 16.6 µM
TGI [5]: > 100 µM
TGI [9]: 92.8 µM

Cc1cccc2c(O)cc(=O)oc12
TGI [1]: > 100 µM
TGI [2]: > 100 µM
TGI [10]: > 100 µM
TGI [5]: > 100 µM
TGI [7]: > 100 µM
TGI [9]: > 100 µM

CC(=O)[O-].O=C([CH-]C(=O)c1ccccc1)c1ccccc1.O=C([CH-]C(=O)c1ccccc1)c1ccccc1.[Sm+3]
GI50 [1]: 3.2 µM
TGI [1]: 16.3 µM
GI50 [2]: 5.92 µM
TGI [2]: 45.1 µM
GI50 [4]: 3.81 µM
TGI [4]: 14.6 µM
GI50 [5]: 5.66 µM
TGI [5]: 24.1 µM
GI50 [7]: 2.13 µM
TGI [7]: 16.3 µM
GI50 [9]: 6.44 µM
TGI [9]: 65.7 µM

Cc1c2oc3c(C)ccc(C(=O)NC4C(=O)NC(C(C)C)C(=O)N5CCCC5C(=O)N(C)CC(=O)N(C)C(Cc5ccccc5)C(=O)OC4C)c3nc-2c(C(=O)NC2C(=O)NC(C(C)C)C(=O)N3CCCC3C(=O)N(C)CC(=O)N(C)C(Cc3ccccc3)C(=O)OC2C)c(N)c1=O (centres undefined) (I: TVP[Sar][NMeF] / II: TVP[Sar][NMeF]; ester I:1-I:C, II:1-II:C; linker I:N-II:N via Actinocin(9to1); configuration not given here)
GI50 [1]: < 0.01 µM and 0.00327 µM
TGI [1]: > 1 µM
GI50 [2]: < 0.01 µM and 0.0028 µM
GI50 [3]: 0.00126 µM
TGI [3]: 0.0136 µM
GI50 [10]: 0.000459 µM
TGI [10]: 0.0102 µM
TGI [4]: < 0.01 µM and 0.0486 µM
TGI [6]: > 1 µM
TGI [7]: 0.132 µM and 0.054 µM
GI50 [8]: < 0.01 µM and 0.0317 µM
GI50 [9]: < 0.01 µM and 0.00378 µM
TGI [9]: 0.118 µM and > 0.381 µM

CCC[CH2][Sn]1([CH2]CCC)[O]CC(C)[O]1 (centres undefined)
GI50 [1]: 1.48 µM
TGI [1]: 2.84 µM
GI50 [2]: 1.88 µM
TGI [2]: 3.94 µM
GI50 [10]: 0.314 µM
TGI [10]: 0.97 µM
GI50 [4]: 1.46 µM
TGI [4]: 2.91 µM
GI50 [5]: 1.07 µM
TGI [5]: 2.56 µM
GI50 [7]: 1.59 µM
TGI [7]: 3.47 µM
GI50 [9]: 1.32 µM
TGI [9]: 2.64 µM

C/C=N\N1C(=O)c2ccccc2C1=O
TGI [1]: > 100 µM
TGI [2]: > 100 µM
TGI [10]: > 100 µM
TGI [4]: > 100 µM
TGI [5]: > 100 µM
TGI [7]: > 100 µM
TGI [9]: > 100 µM

O=NN(CCCl)C(=O)NC1CCC(CC2CCC(NC(=O)N(CCCl)N=O)CC2)CC1 (centres undefined)
TGI [1]: 69.9 µM
TGI [2]: > 67.8 µM
TGI [10]: 50.7 µM
TGI [4]: > 100 µM
TGI [5]: > 100 µM
TGI [6]: 77.9 µM
TGI [7]: > 31.6 µM
TGI [9]: 49.1 µM

O=C(CCCCC(=O)N/N=C\c1ccccc1O)N/N=C\c1ccccc1O
GI50 [1]: 5.13 µM
TGI [1]: > 100 µM
GI50 [2]: 3.49 µM
TGI [2]: > 100 µM
GI50 [10]: 1.29 µM
TGI [10]: > 100 µM
GI50 [4]: 3.87 µM
TGI [4]: > 100 µM
GI50 [7]: 2.6 µM
TGI [7]: > 100 µM
GI50 [8]: 1.9 µM
TGI [8]: 57.5 µM
GI50 [9]: 5.88 µM
TGI [9]: > 100 µM

C[C@@H](Nc1nc(Nc2ccc(F)c(Cl)c2)nc2ccccc12)C1CC1
GI50 [1]: 1.69 µM
TGI [1]: 3.45 µM
GI50 [2]: 3.06 µM
TGI [2]: 17.7 µM
GI50 [3]: 2.84 µM
TGI [3]: 13.3 µM
GI50 [10]: 2.25 µM
TGI [10]: 7.12 µM
GI50 [4]: 2.27 µM
TGI [4]: 6.46 µM
GI50 [6]: 2.3 µM
TGI [6]: 8.52 µM
GI50 [7]: 3.58 µM
TGI [7]: 20.5 µM
GI50 [8]: 2.46 µM
TGI [8]: 7.61 µM
GI50 [9]: 4.44 µM
TGI [9]: 22.1 µM

Cn1c(=O)c2/c(n(C)c1=O)=N\C=c1\c(=O)n(C)c(=O)n(C)\c1=N\C=2
TGI [1]: > 100 µM
TGI [2]: > 100 µM
TGI [10]: > 100 µM
TGI [4]: > 100 µM
TGI [5]: > 100 µM
TGI [7]: > 100 µM
TGI [9]: > 100 µM

CN(C)CC/C(=N\Nc1ccc(Cl)cc1Cl)c1ccccc1
TGI [1]: 27.5 µM
TGI [2]: 22.8 µM
TGI [10]: 31.2 µM
TGI [5]: 30.1 µM
TGI [7]: 34.9 µM
TGI [9]: 30 µM

CCN(CC)c1ccc(/C=C/C=C2\NC(=O)NC2=O)cc1
GI50 [1]: 2.93 µM
TGI [1]: 34.2 µM
GI50 [2]: 3.57 µM
TGI [2]: > 100 µM
GI50 [3]: 3.77 µM
TGI [3]: > 100 µM
GI50 [4]: 2.44 µM
TGI [4]: 29.1 µM
GI50 [6]: 1.12 µM
TGI [6]: 28.5 µM
GI50 [7]: 6.21 µM
TGI [7]: 66.6 µM
GI50 [8]: 10.5 µM
TGI [8]: > 100 µM
GI50 [9]: 16.1 µM
TGI [9]: > 100 µM

Oc1c(CN2CCN(c3ccccc3)CC2)cc(Br)c2cccnc12
TGI [1]: 14.5 µM
TGI [2]: > 100 µM
TGI [3]: > 100 µM
TGI [10]: > 100 µM
TGI [5]: > 100 µM
TGI [6]: > 100 µM
TGI [7]: > 100 µM
TGI [8]: 15.7 µM
TGI [9]: > 100 µM
